Measurements reported in patent publication US20110039721A1, “METHOD FOR PREDICTION ABOUT CARCINOGENICITY OF SUBSTANCE IN RODENT” (Chemicals Evaluation and Research Institute, priority 2007, published 2011).

Test system: mRNA expressed from the genes (A) to (D) in rat liver
Experiment: Behavior of genes (mRNA expression level, oligo-DNA microarray) in rat liver after 28-day oral administration
Type: in vivo
In short: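 Male F344 SPF rats, 5 weeks old, four per group, dosed by oral gavage once daily for 28 days with test chemical or matched-volume solvent. Liver total RNA profiled on oligo-DNA microarray. Change ≥1.5-fold or ≤1/1.5 versus vehicle counted as significant if its direction matched that seen with other carcinogens.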

[1] = gene group (A), Unigene No. Rn.167075
[2] = gene group (C), Unigene No. Rn.120914

COc1ccc2c(c1)c(CC(=O)O)c(C)n2C(=O)c1ccc(Cl)cc1 [TS085, Indomethacin]
−: Behavior of gene caused by administration of chemical substance, Gene No. 4846 (gene group (A), Unigene No. Rn.144554) | Behavior of gene caused by administration of chemical substance, Gene No. 2026 [1] | Behavior of gene caused by administration of chemical substance, Gene No. 4218 [1] | Behavior of gene caused by administration of chemical substance, Gene No. 6182 (gene group (A), Unigene No. Rn.5834) | Behavior of gene caused by administration of chemical substance, Gene No. 5600 (gene group (A), Unigene No. Rn.9836) | Behavior of gene caused by administration of chemical substance, Gene No. 1494 (gene group (B), Unigene No. Rn.1430) | Behavior of gene caused by administration of chemical substance, Gene No. 2045 (gene group (B), Unigene No. Rn.19329) | Behavior of gene caused by administration of chemical substance, Gene No. 2203 (gene group (B), Unigene No. Rn.21240) | Behavior of gene caused by administration of chemical substance, Gene No. 533 (gene group (C), Unigene No. Rn.106184) | Behavior of gene caused by administration of chemical substance, Gene No. 725 (gene group (C), Unigene No. Rn.108075) | Behavior of gene caused by administration of chemical substance, Gene No. 1163 (gene group (C), Unigene No. Rn.11766) | Behavior of gene caused by administration of chemical substance, Gene No. 4973 (gene group (C), Unigene No. Rn.118529) | Behavior of gene caused by administration of chemical substance, Gene No. 4095 (gene group (C), Unigene No. Rn.119024) | Behavior of gene caused by administration of chemical substance, Gene No. 1334 [2] | Behavior of gene caused by administration of chemical substance, Gene No. 6620 [2] | Behavior of gene caused by administration of chemical substance, Gene No. 6303 (gene group (C), Unigene No. Rn.123063) | Behavior of gene caused by administration of chemical substance, Gene No. 5878 (gene group (C), Unigene No. Rn.143213) | Behavior of gene caused by administration of chemical substance, Gene No. 1131 (gene group (C), Unigene No. Rn.144946) | Behavior of gene caused by administration of chemical substance, Gene No. 1562 (gene group (C), Unigene No. Rn.14744) | Behavior of gene caused by administration of chemical substance, Gene No. 1741 (gene group (C), Unigene No. Rn.1647) | Behavior of gene caused by administration of chemical substance, Gene No. 893 (gene group (C), Unigene No. Rn.164817) | Behavior of gene caused by administration of chemical substance, Gene No. 6026 (gene group (C), Unigene No. Rn.167685) | Behavior of gene caused by administration of chemical substance, Gene No. 154 (gene group (C), Unigene No. Rn.185941) | Behavior of gene caused by administration of chemical substance, Gene No. 1993 (gene group (C), Unigene No. Rn.18728) | Behavior of gene caused by administration of chemical substance, Gene No. 813 (gene group (C), Unigene No. Rn.201760) | Behavior of gene caused by administration of chemical substance, Gene No. 2494 (gene group (C), Unigene No. Rn.23969) | Behavior of gene caused by administration of chemical substance, Gene No. 2546 (gene group (C), Unigene No. Rn.24561) | Behavior of gene caused by administration of chemical substance, Gene No. 3776 (gene group (C), Unigene No. Rn.43232) | Behavior of gene caused by administration of chemical substance, Gene No. 3929 (gene group (C), Unigene No. Rn.4620) | Behavior of gene caused by administration of chemical substance, Gene No. 1119 (gene group (C), Unigene No. Rn.9757) | Behavior of gene caused by administration of chemical substance, Gene No. 6742 (gene group (C), Unigene No. Rn.9779) | Behavior of gene caused by administration of chemical substance, Gene No. 5634 (gene group (C), Unigene No. Rn.9862) | Behavior of gene caused by administration of chemical substance, Gene No. 5726 (gene group (D), Unigene No. Rn.9939)
